Experimental data reported in PubChem BioAssay AID2060506 (Molecular Pharmacology Branch, DTP, NCI, 2025).

Test system: 598228-144-R-J1-PDC complex spheroid viability
Assay: Anticancer human tumor 598228-144-R-J1-PDC patient-derived serous endometrial adenocarcinoma cell line growth inhibition [GQUAD]
Details: for IC50: curve of first compound; for viability, T/C: stronger effect = lower value
Text: DNA G-quadruplex Stabilizer Agents in Combinations in Complex Spheroids
A high-throughput screen of multi-cell type tumor spheroids was designed to identify active combinations of DNA G-quadruplex stabilizer agents and targeted small molecules. Complex spheroids include a stromal component modeled by human endothelial cells (HUVEC) and fibroblasts modeled by human mesenchymal stem cells (MSCs). The concentration ranges selected for each drug and investigational agent were based upon clinically achievable concentrations if the clinical Cmax of the agent was known.
Compounds. The drugs and investigational agents: pidnarulex (CX-5461; NSC782164), APTO-253 (NSC789042), BRACO-19 (NSC847499), peposertib (NSC802822), ceralasertib (NSC780249), elimusertib (NSC800525), camonsertib (NSC841442), AZD-1390 (NSC803789), olaparib (NSC753686), talazoparib (NSC767125), ART-558 (NSC835418), sotorasib (NSC818433), MRTX-1133 (NSC836407), SN-38 (NSC673596), topotecan (NSC609699), etoposide (NSC141540), doxorubicin (NSC123127), gemcitabine (NSC613327), 5-fluorouracil (NSC19893), paclitaxel (NSC125973), vemurafenib (NSC761431), panobinostat (NSC761190), R-306465 (JNJ-16241199; NSC773264), adavosertib (NSC754352), TP-3654 (NSC805149), carboplatin (NSC241240), KSQ-4279 (NSC840948), and staurosporine (NSC755774) were obtained from the National Cancer Institute (NCI) Developmental Therapeutics Program Chemical Repository (34). The FDA-approved anticancer drug set is available from the NCI Developmental Therapeutics Program. […] The stock solutions were prepared in dimethyl sulfoxide (DMSO, Sigma-Aldrich, St. Louis, MO, cat. D2650) at 800-fold the tested concentration and stored at -70 degrees C prior to their use. All drugs and investigational agents were tested over a range starting from a high concentration at or near the clinical Cmax and decreasing in half-log increments. If the clinical Cmax for an agent had not been determined, the highest concentration tested was 10 microM.
2.3 Cell Culture. All cells were maintained in an incubator at 37 degrees C and 5% CO2 with 95% humidity. The PDC lines were cultured according to standard operating procedures established by the NCI PDMR. All PDCs were thawed and cultured in Matrigel-coated flasks prepared with a working solution of 1X Ham's F-12 nutrient mix, without supplementation (Invitrogen, cat. 11765054), 100 U/mL penicillin-streptomycin (Invitrogen, cat. 15140122), and 2.5% Matrigel (Corning Inc., cat. 354248) for the first three passages. The 857933-349-R-J2-PDC line was cultured in 6C/Colon 1B media, which includes advanced DMEM/F-12 (Thermo Fisher Scientific, cat. 12634028), 10 mM HEPES (Thermo Fisher Scientific, cat. 15630080), 1X GlutaMAX supplement (Thermo Fisher Scientific, cat. 35050061), 0.1 mg/mL primocin (InvivoGen, cat. ant-pm-2), 10% defined fetal bovine serum, heat inactivated (HyClone Laboratories Inc., cat. SH30070.03HI), 50% L-WRN conditioned media (ATCC, cat. CRL-3276), 1.25 mM N-Acetyl-L-cysteine (Sigma-Aldrich, cat. A9165), 10 mM nicotinamide (Sigma-Aldrich, cat. N0636), 1X B-27 supplement (Thermo Fisher Scientific, cat. 17504044), 1X N-2 supplement (Thermo Fisher Scientific, cat. 17502048), 10 microM Y-27632 dihydrochloride (Tocris Bioscience, cat. 1254), and 50 ng/mL human EGF recombinant protein (Thermo Fisher Scientific, cat. PHG0311). The 485176-168-R4-J1-PDC line was cultured in Panc media, which includes all 6C/Colon 1B media components plus 100 ng/mL human FGF-10 (Thermo Fisher Scientific, cat. 100-26), 500 nM SB-431542 (Selleckchem, cat. S1067), and gastrin (Tocris, cat. 3006).
[…]

[1] = second compound 0.0316 µM, first compound 0.0316 µM
[2] = second compound 0.0316 µM, first compound 0.316 µM
[3] = second compound 0.1 µM, first compound 0.0316 µM
[4] = second compound 0.1 µM, first compound 0.316 µM
[5] = second compound 0.316 µM, first compound 0.0316 µM
[6] = second compound 0.316 µM, first compound 0.316 µM
[7] = second compound 1 µM, first compound 0.0316 µM
[8] = second compound 1 µM, first compound 0.316 µM
[9] = second compound 3.16 µM, first compound 0.0316 µM
[10] = second compound 3.16 µM, first compound 0.316 µM
[11] = second compound 10 µM, first compound 0.0316 µM
[12] = second compound 10 µM, first compound 0.316 µM
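Also: spheroids exposed to the agents for one week before reading.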
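For viability, T/C in this document: percent of vehicle DMSO control viability so 100% = untreated growth.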

With `Cn1ncnc1[C@H]1c2n[nH]c(=O)c3cc(F)cc(c23)N[C@@H]1c1ccc(F)cc1` + Cc1[nH]c2ccc(F)cc2c1-c1nc2c3cccnc3c3ncccc3c2[nH]1 the IC50 (second compound 0.0316 µM) was greater than 316 nM, the IC50 (second compound 0.1 µM) was greater than 316 nM and the IC50 (second compound 0.316 µM) was greater than 316 nM. For the same compound, the IC50 (second compound 1 µM) was greater than 316 nM, the IC50 (second compound 3.16 µM) was less than 0.999 nM and the IC50 (second compound 10 µM) was greater than 316 nM. The viability, T/C (second compound 0.0316 µM, first compound 0.000999 µM) was 125%, the viability, T/C (second compound 0.0316 µM, first compound 0.00316 µM) was 86.2% and the viability, T/C (second compound 0.0316 µM, first compound 0.00999 µM) was 106%. For the same compound, the viability, T/C [1] was 71.6%, the viability, T/C (second compound 0.0316 µM, first compound 0.0999 µM) was 80.8% and the viability, T/C [2] was 83.3%. For the same compound, the viability, T/C (second compound 0.1 µM, first compound 0.000999 µM) was 103%, the viability, T/C (second compound 0.1 µM, first compound 0.00316 µM) was 99% and the viability, T/C (second compound 0.1 µM, first compound 0.00999 µM) was 78.8%. It also gave a viability, T/C [3] of 70.6%, a viability, T/C (second compound 0.1 µM, first compound 0.0999 µM) of 93.8% and a viability, T/C [4] of 73.3%. For the same compound, the viability, T/C (second compound 0.316 µM, first compound 0.000999 µM) was 78.6%, the viability, T/C (second compound 0.316 µM, first compound 0.00316 µM) was 79.3% and the viability, T/C (second compound 0.316 µM, first compound 0.00999 µM) was 76.6%. For the same compound, the viability, T/C [5] was 72%, the viability, T/C (second compound 0.316 µM, first compound 0.0999 µM) was 69.7% and the viability, T/C [6] was 60.4%. The viability, T/C (second compound 1 µM, first compound 0.000999 µM) was 63.9%, the viability, T/C (second compound 1 µM, first compound 0.00316 µM) was 59.2% and the viability, T/C (second compound 1 µM, first compound 0.00999 µM) was 66.2%. For the same compound, the viability, T/C [7] was 56.7%, the viability, T/C (second compound 1 µM, first compound 0.0999 µM) was 50.9% and the viability, T/C [8] was 57.7%. For the same compound, the viability, T/C (second compound 3.16 µM, first compound 0.000999 µM) was 33.1%, the viability, T/C (second compound 3.16 µM, first compound 0.00316 µM) was 43.8% and the viability, T/C (second compound 3.16 µM, first compound 0.00999 µM) was 51.1%. For the same compound, the viability, T/C [9] was 37.9%, the viability, T/C (second compound 3.16 µM, first compound 0.0999 µM) was 39.6% and the viability, T/C [10] was 40.3%. For the same compound, the viability, T/C (second compound 10 µM, first compound 0.000999 µM) was 64.3%, the viability, T/C (second compound 10 µM, first compound 0.00316 µM) was 58.9% and the viability, T/C (second compound 10 µM, first compound 0.00999 µM) was 64.6%. The viability, T/C [11] was 53%, the viability, T/C (second compound 10 µM, first compound 0.0999 µM) was 55.6% and the viability, T/C [12] was 51.8%.

`C#Cc1c(F)ccc2cc(O)cc(-c3ncc4c(N5CC6CCC(C5)N6)nc(OCC56CCCN5CC(F)C6)nc4c3F)c12` (centres undefined) + Cc1[nH]c2ccc(F)cc2c1-c1nc2c3cccnc3c3ncccc3c2[nH]1 showed an IC50 (second compound 0.0316 µM) greater than 10000 nM, an IC50 (second compound 0.1 µM) greater than 10000 nM and an IC50 (second compound 0.316 µM) greater than 10000 nM. For the same compound, the IC50 (second compound 1 µM) was greater than 10000 nM, the IC50 (second compound 3.16 µM) was less than 31.6 nM and the IC50 (second compound 10 µM) was greater than 10000 nM. It also gave a viability, T/C [1] of 124%, a viability, T/C (second compound 0.0316 µM, first compound 0.1 µM) of 88.7% and a viability, T/C [2] of 120%. The viability, T/C (second compound 0.0316 µM, first compound 1 µM) was 100%, the viability, T/C (second compound 0.0316 µM, first compound 3.16 µM) was 114% and the viability, T/C (second compound 0.0316 µM, first compound 10 µM) was 111%. For the same compound, the viability, T/C [3] was 121%, the viability, T/C (second compound 0.1 µM, first compound 0.1 µM) was 126% and the viability, T/C [4] was 97.2%. It also gave a viability, T/C (second compound 0.1 µM, first compound 1 µM) of 107%, a viability, T/C (second compound 0.1 µM, first compound 3.16 µM) of 143% and a viability, T/C (second compound 0.1 µM, first compound 10 µM) of 130%. The viability, T/C [5] was 93.7%, the viability, T/C (second compound 0.316 µM, first compound 0.1 µM) was 87.4% and the viability, T/C [6] was 87.9%. For the same compound, the viability, T/C (second compound 0.316 µM, first compound 1 µM) was 102%, the viability, T/C (second compound 0.316 µM, first compound 3.16 µM) was 115% and the viability, T/C (second compound 0.316 µM, first compound 10 µM) was 98.7%. It also gave a viability, T/C [7] of 74.7%, a viability, T/C (second compound 1 µM, first compound 0.1 µM) of 59.1% and a viability, T/C [8] of 54.3%. It also gave a viability, T/C (second compound 1 µM, first compound 1 µM) of 59.7%, a viability, T/C (second compound 1 µM, first compound 3.16 µM) of 71.9% and a viability, T/C (second compound 1 µM, first compound 10 µM) of 62%. For the same compound, the viability, T/C [9] was 37%, the viability, T/C (second compound 3.16 µM, first compound 0.1 µM) was 51.8% and the viability, T/C [10] was 44.6%. The viability, T/C (second compound 3.16 µM, first compound 1 µM) was 40.2%, the viability, T/C (second compound 3.16 µM, first compound 3.16 µM) was 44.2% and the viability, T/C (second compound 3.16 µM, first compound 10 µM) was 31.9%. The viability, T/C [11] was 69.2%, the viability, T/C (second compound 10 µM, first compound 0.1 µM) was 62.3% and the viability, T/C [12] was 64.3%. The viability, T/C (second compound 10 µM, first compound 1 µM) was 58.3%, the viability, T/C (second compound 10 µM, first compound 3.16 µM) was 60% and the viability, T/C (second compound 10 µM, first compound 10 µM) was 52.8%.
